{
  "source": "patent US20090239846A1",
  "about": "“Novel Compounds” (Glaxo Group Limited, priority 2005, published 2009)",
  "key": {"[1]": {"biological_target": "T1, Recombinant human p38α (Homo sapiens, UniProt Q16539)", "T1 construct": "GST; made in house", "T1 sequence (Q16539 whole entry)": "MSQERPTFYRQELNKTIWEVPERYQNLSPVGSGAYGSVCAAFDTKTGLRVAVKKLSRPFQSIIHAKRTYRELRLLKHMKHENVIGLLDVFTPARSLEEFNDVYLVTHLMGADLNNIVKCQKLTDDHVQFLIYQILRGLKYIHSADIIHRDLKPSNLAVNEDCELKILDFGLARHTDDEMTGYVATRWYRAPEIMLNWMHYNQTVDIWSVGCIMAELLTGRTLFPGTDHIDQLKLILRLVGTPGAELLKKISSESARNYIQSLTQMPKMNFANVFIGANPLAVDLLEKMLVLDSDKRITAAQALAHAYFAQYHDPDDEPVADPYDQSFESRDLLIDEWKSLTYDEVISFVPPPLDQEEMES", "assay": "Fluorescence anisotropy kinase binding assay (standard or low volume)", "conditions": "12 nM p38α, 5 nM fluorescent ligand; call rule not given here", "from_the_text": "(§1) The concentration of kinase enzyme should preferably be >2×Kf. The concentration of fluorescent ligand required will depend on the instrumentation used, and the fluorescent and physicochemical properties. The concentration used must be lower than the concentration of kinase enzyme, and preferably less than half the kinase enzyme concentration.\nThe fluorescent ligand is the following compound:\n[drawing 329] • which is derived from 5-[2-(4-aminomethylphenyl)-5-pyridin-4-yl-1H-imidazol-4-yl]-2-chlorophenol and rhodamine green. Recombinant human p38α was expressed as a GST-tagged protein. To activate this protein, 3.5 μM unactivated p38α was incubated in 50 mM Tris-HCl pH 7.5, 0.1 mM EGTA, 0.1% 2-mercaptoethanol, 0.1 mM sodium vanadate, 10 mM MgAc, 0.1 mM ATP with 200 nM MBP-MKK6 DD at 30 degrees for 30 mins. Following activation p38α was re-purified and the activity assessed using a standard filter-binding assay. Protocol: All components are dissolved in buffer of composition 62.5 mM HEPES, pH 7.5, 1.25 mM CHAPS, 1 mM DTT, 12.5 mM MgCl2 with final concentrations of 12 nM p38α and 5 nM fluorescent ligand. 30 μl of this reaction mixture is added to wells containing 1 μl of various concentrations of test compound (0.28 nM-16.6 μM final) or DMSO vehicle (3% final) in NUNC 384 well black microtitre plate and equilibrated for 30-60 mins at room temperature. Fluorescence anisotropy is read in Molecular Devices Acquest (excitation 485 nm/emission 535 nm). Definitions: Ki=dissociation constant for inhibitor binding • Kf=dissociation constant for fluorescent ligand binding\nas §1, with “2×Kf.” for “>2×Kf.”, “concentration. The fluorescent ligand is the following compound:” for “concentration.”\nwhich is derived from 5-[2-(4-aminomethylphenyl)-5-pyridin-4-yl-1H-imidazol-4-yl]-2-chlorophenol and rhodamine green. Recombinant human p38α was expressed as a GST-tagged protein. To activate this protein, 3.5 μM unactivated p38α was incubated in 50 mM Tris-HCl pH 7.5, 0.1 mM EGTA, 0.1% 2-mercaptoethanol, 0.1 mM sodium vanadate, 10 mM MgAc, 0.1 mM ATP with 200 nM MBP-MKK6 DD at 30 degrees for 30 mins. Following activation p38α was re-purified and the activity assessed using a standard filter-binding assay. Protocol: All components are dissolved in buffer of composition 62.5 mM HEPES, pH 7.5, 1.25 mM CHAPS, 1 mM DTT, 12.5 mM MgCl2 with final concentrations of 12 nM p38α and 5 nM fluorescent ligand. […] of this reaction mixture is added to wells containing 0.1 μl of various concentrations of test compound (0.02 nM-25 μM final) or DMSO vehicle (1.7% final) in Greiner low volume 384 well black microtitre plate and equilibrated for 30-60 mins at room temperature. Fluorescence anisotropy is read in Molecular Devices Acquest (excitation 485 nm/emission 535 nm). Definitions: Ki dissociation constant for inhibitor binding • Kf=dissociation constant for fluorescent ligand binding It is noted that there are two assay formats shown above for the Fluorescence anisotropy kinase binding assay. The only difference between these two assays is the volume used and the plate type. […] The results described herein may have been performed in either assay format and are not differentiated as to which."}, "[2]": {"tested_on": "influx of neutrophils to the lung in LPS-challenged rats", "assay": "Rat LPS neutrophilia model", "type": "in vivo", "conditions": "LPS aerosol, lavage 4 hours later, in at least one of the range of conditions tested, significance p<0.05", "method": "The effect of compounds on the influx of neutrophils to the lung in LPS-challenged rats is evaluated as follows. The test compound is suspended in one of the following solutions: 0.5% tween 80/PBS, 0.5% tween 80/saline, 10% EtOH/saline (with pH adjusted to 2.0, or 8.0 with HCl, or unadjusted), Saline (pH 2.0, 6.5 or 8.0, 0.5% Tragacanth, 1% DMSO/20% Encapsin/Saline, or acidified 5% Tragacanth. The suspension process may be aided by the use of a glass homogenizer. For intratracheal administration, the animals are anesthetized with inhaled isoflurane and placed in a supine position, the trachea is intubated with a steel gavage needle (1.5 inch, 22 gauge, small ball) or a Penn-Century Microsprayer Aerosolizer (model IA-LB) and 200 ul of dosing solution is delivered. The animals are visually monitored during the recovery process, which typically occurs within two minutes.\nRats treated with compound or vehicle (15 min-24 hours pretreatment) are exposed to an LPS aerosol (100 ug/ml) for 15 min. Four hours later the rats are euthanized with pentobarbital (100 mg/kg, i.p.) and the airways are lavaged with 5 washes of 5 ml of phosphate buffered saline. The harvested cells are stained (Diffquick) and counted to determine total and differential cell data. In a typical study, macrophages represent 40-70% of the total cells, and polymorphonuclear cells 30-60% of the total cells. Inhibition of neutrophil levels relative to no compound controls is calculated based on the differential counts.\nThe assay has varying conditions, such as concentration, pretreat time, form of the compound (crystalline, amorphous, salts, micronised), and a wet or dry application of the compound.\nThe data is obtained as % inhibition using a particular concentration and pretreat time."}},
  "note": "Where a name gives a salt, the structure may show the parent alone.",
  "data": [
    {"compound": "CC(C)NC(=O)c1cccc(-c2nc(NCCN(C)C)nc3c2CNC(=O)N3c2c(F)cccc2F)c1", "note": "[88(c), 3-(8-(2,6-difluorophenyl)-2-{[2-(dimethylamino)ethyl]amino}-7-oxo-5,6,7,8-tetrahydropyrimido[4,5-d]pyrimidin-4-yl)-N-(1-methylethyl)benzamide]", "values": [
      {"measurement": "active in the assay (pIC50, p38α binding)", "setting": "[1]", "value": "active"}
    ]},
    {"compound": "CN(C)CCNc1nc(-c2cccc(C(=O)Nc3nccs3)c2)c2c(n1)N(c1c(F)cccc1F)C(=O)NC2", "note": "[Example 92, 3-(8-(2,6-difluorophenyl)-2-{[2-(dimethylamino)ethyl]amino}-7-oxo-5,6,7,8-tetrahydropyrimido[4,5-d]pyrimidin-4-yl)-N-1,3-thiazol-2-ylbenzamide]", "values": [
      {"measurement": "inhibition of neutrophilia", "setting": "[2]", "value": "statistically significant inhibition of neutrophilia"}
    ]},
    {"compound": "Cc1ccc(C(=O)NC(C)C)cc1-c1nc(N2CCC(N3CCCCC3)CC2)nc2c1CNC(=O)N2c1c(F)cccc1F", "note": "[Example 57, 3-[2-(1,4′-bipiperidin-1′-yl)-8-(2,6-difluorophenyl)-7-oxo-5,6,7,8-tetrahydropyrimido[4,5-d]pyrimidin-4-yl]-4-methyl-N-(1-methylethyl)benzamide]", "values": [
      {"measurement": "inhibition of neutrophilia", "setting": "[2]", "value": "statistically nonsignificant inhibition of neutrophilia"}
    ]},
    {"compound": "Cc1ccc(NC(=O)c2ccsc2)cc1-c1nc(NC2CC(C)(C)NC(C)(C)C2)nc2c1CNC(=O)N2c1c(F)cccc1F", "note": "[7(d), N-(3-{8-(2,6-Difluorophenyl)-7-oxo-2-[(2,2,6,6-tetramethyl-4-piperidinyl)amino]-5,6,7,8-tetrahydropyrimido[4,5-d]pyrimidin-4-yl}-4-methylphenyl)-3-thiophenecarboxamide]", "values": [
      {"measurement": "active in the assay (pIC50, p38α binding)", "setting": "[1]", "value": "active"}
    ]},
    {"compound": "Cc1ccc(C(=O)NCC2CC2)cc1-c1nc(N2CCC(N)CC2)nc2c1CNC(=O)N2c1c(F)cccc1F", "note": "[2(b), 3-[2-(4-Amino-1-piperidinyl)-8-(2,6-difluorophenyl)-7-oxo-5,6,7,8-tetrahydropyrimido[4,5-d]pyrimidin-4-yl]-N-(cyclopropylmethyl)-4-methylbenzamide]", "values": [
      {"measurement": "active in the assay (pIC50, p38α binding)", "setting": "[1]", "value": "active"}
    ]},
    {"compound": "CSc1nc(-c2cc(C(=O)O)ccc2C)c2c(n1)N(c1c(F)cccc1F)C(=O)NC2", "note": "[1(d), 3-[8-(2,6-Difluorophenyl)-2-(methylthio)-7-oxo-5,6,7,8-tetrahydropyrimido[4,5-d]pyrimidin-4-yl]-4-methylbenzoic acid]", "values": [
      {"measurement": "active in the assay (pIC50, p38α binding)", "setting": "[1]", "value": "active"}
    ]},
    {"compound": "CSc1nc(-c2cc(N)ccc2C)c2c(n1)N(c1c(F)cccc1F)C(=O)NC2", "note": "[10(b), 5-(5-Amino-2-methylphenyl)-1-(2,6-difluorophenyl)-7-(methylthio)-3,4-dihydropyrimido[4,5-d]pyrimidin-2(1H)-one]", "values": [
      {"measurement": "active in the assay (pIC50, p38α binding)", "setting": "[1]", "value": "active"}
    ]},
    {"compound": "Cc1ccc(C(=O)NCc2ccccc2)cc1-c1nc(NC2CCN(C(=O)OC(C)(C)C)CC2)nc2c1CNC(=O)N2c1c(F)cccc1F", "note": "[21(a), 1,1-Dimethylethyl 4-{[8-(2,6-difluorophenyl)-4-(2-methyl-5-{[(phenylmethyl)amino]carbonyl}phenyl)-7-oxo-5,6,7,8-tetrahydropyrimido[4,5-d]pyrimidin-2-yl]amino}-1-piperidinecarboxylate]", "values": [
      {"measurement": "active in the assay (pIC50, p38α binding)", "setting": "[1]", "value": "active"}
    ]},
    {"compound": "CSc1nc(-c2cc(C(=O)N(C)C)ccc2C)c2c(n1)N(c1c(F)cccc1F)C(=O)NC2", "note": "[149(a), 3-[8-(2,6-difluorophenyl)-2-(methylthio)-7-oxo-5,6,7,8-tetrahydropyrimido[4,5-d]pyrimidin-4-yl]-N,N,4-trimethylbenzamide]", "values": [
      {"measurement": "active in the assay (pIC50, p38α binding)", "setting": "[1]", "value": "active"}
    ]},
    {"compound": "CNC1CCN(c2nc(-c3cc(C(=O)Nc4ccc(F)cc4)ccc3C)c3c(n2)N(c2c(F)cccc2F)C(=O)NC3)CC1", "note": "[33(b), 3-{8-(2,6-difluorophenyl)-2-[4-(methylamino)-1-piperidinyl]-7-oxo-5,6,7,8-tetrahydropyrimido[4,5-d]pyrimidin-4-yl}-N-(4-fluorophenyl)-4-methylbenzamide]", "values": [
      {"measurement": "active in the assay (pIC50, p38α binding)", "setting": "[1]", "value": "active"}
    ]},
    {"compound": "CNC(=O)c1ccc(C)c(-c2nc(SC)nc3c2CNC(=O)N3c2c(F)cccc2F)c1", "note": "[163(a), 3-[8-(2,6-difluorophenyl)-2-(methylthio)-7-oxo-5,6,7,8-tetrahydropyrimido[4,5-d]pyrimidin-4-yl]-N,4-dimethylbenzamide]", "values": [
      {"measurement": "active in the assay (pIC50, p38α binding)", "setting": "[1]", "value": "active"}
    ]},
    {"compound": "CSc1nc(-c2cc(NC(=O)c3ccsc3)ccc2C)c2c(n1)N(c1c(F)cccc1F)C(=O)NC2", "note": "[Example 10(c), N-{3-[8-(2,6-difluorophenyl)-2-(methylthio)-7-oxo-5,6,7,8-tetrahydropyrimido[4,5-d]pyrimidin-4-yl]-4-methylphenyl}-3-thiophenecarboxamide]", "values": [
      {"measurement": "active in the assay (pIC50, p38α binding)", "setting": "[1]", "value": "active"}
    ]},
    {"compound": "CNCCNc1nc(-c2cc(C(=O)NC(C)C)ccc2C)c2c(n1)N(c1c(F)cccc1F)C(=O)NC2", "note": "[38(b), 3-(8-(2,6-difluorophenyl)-2-{[2-(methylamino)ethyl]amino}-7-oxo-5,6,7,8-tetrahydropyrimido[4,5-d]pyrimidin-4-yl)-4-methyl-N-(1-methylethyl)benzamide]", "values": [
      {"measurement": "active in the assay (pIC50, p38α binding)", "setting": "[1]", "value": "active"}
    ]},
    {"compound": "Cc1ccc(C(=O)Nc2ccc(F)cc2)cc1-c1nc(NCCNC(C)C)nc2c1CNC(=O)N2c1c(F)cccc1F", "note": "[30(c), 3-[8-(2,6-difluorophenyl)-2-({2-[(1-methylethyl)amino]ethyl}amino)-7-oxo-5,6,7,8-tetrahydropyrimido[4,5-d]pyrimidin-4-yl]-N-(4-fluorophenyl)-4-methylbenzamide]", "values": [
      {"measurement": "active in the assay (pIC50, p38α binding)", "setting": "[1]", "value": "active"}
    ]},
    {"compound": "Cc1ccc(C(=O)NCCc2ccc(F)cc2)cc1-c1nc(N2CCC(N)CC2)nc2c1CNC(=O)N2c1c(F)cccc1F", "note": "[3(b), 3-[2-(4-Amino-1-piperidinyl)-8-(2,6-difluorophenyl)-7-oxo-5,6,7,8-tetrahydropyrimido[4,5-d]pyrimidin-4-yl]-N-[2-(4-fluorophenyl)ethyl]-4-methylbenzamide]", "values": [
      {"measurement": "active in the assay (pIC50, p38α binding)", "setting": "[1]", "value": "active"}
    ]},
    {"compound": "CNCCNc1nc(-c2cc(C(=O)Nc3ccc(F)cc3)ccc2C)c2c(n1)N(c1c(F)cccc1F)C(=O)NC2", "note": "[31(b), 3-(8-(2,6-difluorophenyl)-2-{[2-(methylamino)ethyl]amino}-7-oxo-5,6,7,8-tetrahydropyrimido[4,5-d]pyrimidin-4-yl)-N-(4-fluorophenyl)-4-methylbenzamide]", "values": [
      {"measurement": "active in the assay (pIC50, p38α binding)", "setting": "[1]", "value": "active"}
    ]},
    {"compound": "CCN(CC)CCCC(C)Nc1nc(-c2cc(C(=O)NC(C)C)ccc2C)c2c(n1)N(c1c(F)cccc1F)C(=O)NC2", "note": "(centres unmarked) [Example 85, 3-[2-{[4-(diethylamino)-1-methylbutyl]amino}-8-(2,6-difluorophenyl)-7-oxo-5,6,7,8-tetrahydropyrimido[4,5-d]pyrimidin-4-yl]-4-methyl-N-(1-methylethyl)benzamide trifluoroacetate]", "values": [
      {"measurement": "active in the assay (pIC50, p38α binding)", "setting": "[1]", "value": "active"}
    ]}
  ]
}
